In patent US11634393B2, “Substituted tolyl fungicides” (FMC CORPORATION, priority 2018, dated 2023):

Tests used:
Zymoseptoria tritici = test: Test A: wheat leaf blotch, spray on wheat seedlings, disease control rating; type: in vivo; conditions: 100 = 100% disease control, 0 = no disease control relative to the controls; for pest or weed control at 250 ppm: Rate 250 ppm; for pest or weed control at 10 ppm: Rate 10 ppm
Source text: (§1) General protocol for preparing test suspensions for Tests A-F: the test compounds were first dissolved in acetone in an amount equal to 3% of the final volume and then suspended at the desired concentration (in ppm) in acetone and purified water (50/50 mix by volume) containing 250 ppm of the surfactant PEG400 (polyhydric alcohol esters). The resulting test suspensions were then used in Tests A-F.
The test solution was sprayed to the point of run-off on wheat seedlings. The following day the seedlings were inoculated with a spore suspension of Zymoseptoria tritici (the causal agent of wheat leaf blotch) and incubated in a saturated atmosphere at 24° C. for 48 h, and then moved to a growth chamber at 20° C. for 17 days, after which time disease ratings were made.
(§2) A rating of 100 indicates 100% disease control and a rating of 0 indicates no disease control (relative to the controls). A dash (-) indicates the compound was not tested.

[1] = tested on: Puccinia recondita f. sp. tritici; test: Test B: wheat leaf rust, spray on wheat seedlings, disease control rating; type: in vivo; conditions: Puccinia recondita, 192 h, 100 = 100% disease control, 0 = no disease control relative to the controls; for pest or weed control at 250 ppm: Rate 250 ppm; for pest or weed control at 10 ppm: Rate 10 ppm
How it was run: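 Compound in acetone (3% of final volume) was suspended at the stated ppm in acetone/water 50/50 with 250 ppm PEG400 and sprayed to run-off on wheat seedlings. Puccinia recondita spores were inoculated next day, then 24 h saturated atmosphere at 20 °C and 7 days at 20 °C. Rated 0–100% disease control versus controls.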

[2] = tested on: Blumeria graminis f. sp. tritici; test: Test C: wheat powdery mildew, spray on wheat seedlings, disease control rating; type: in vivo; conditions: 192 h, 100 = 100% disease control, 0 = no disease control relative to the controls; for pest or weed control at 250 ppm: Rate 250 ppm; for pest or weed control at 10 ppm: Rate 10 ppm
Source text: as §1
The test suspension was sprayed to the point of run-off on wheat seedlings. The following day the seedlings were inoculated with a spore dust of Blumeria graminis f. sp. tritici, (also known as Erysiphe graminis f. sp. tritici, the causal agent of wheat powdery mildew) and incubated in a growth chamber at 20° C. for 8 days, after which time visual disease ratings were made.
as §2

Phakopsora pachyrhizi = test: Test D: Asian soybean rust, spray on soybean seedlings, disease control rating; type: in vivo; conditions: Phakopsora pachyrhizi, 216 h, 100 = 100% disease control, 0 = no disease control relative to the controls; for pest or weed control at 250 ppm: Rate 250 ppm; for pest or weed control at 10 ppm: Rate 10 ppm
How it was run: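 Soybean seedlings sprayed to run-off with compound suspension (ppm, in 50/50 acetone/water with 250 ppm PEG400), inoculated next day with P. pachyrhizi spores, held 24 h saturated at 22°C then 8 days at 22°C. Visual rating 0-100% disease control relative to controls.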

Botrytis cinerea = test: Test E: tomato Botrytis, spray on tomato seedlings, disease control rating; type: in vivo; conditions: 100 = 100% disease control, 0 = no disease control relative to the controls; for pest or weed control at 250 ppm: Rate 250 ppm; for pest or weed control at 10 ppm: Rate 10 ppm
Source text: as §1
The test suspension was sprayed to the point of run-off on tomato seedlings. The following day the seedlings were inoculated with a spore suspension of Botrytis cinerea (the causal agent of tomato Botrytis) and incubated in a saturated atmosphere at 20° C. for 48 h, and then moved to a growth chamber at 24° C. for 3 days, after which time visual disease ratings were made.
as §2

Row | SMILES | pest or weed control at 250 ppm (Zymoseptoria tritici) [%] | pest or weed control at 250 ppm [1] [%] | pest or weed control at 250 ppm [2] [%] | pest or weed control at 250 ppm (Phakopsora pachyrhizi) [%] | pest or weed control at 250 ppm (Botrytis cinerea) [%] | melting point [°C] | pest or weed control at 10 ppm (Zymoseptoria tritici) [%] | pest or weed control at 10 ppm [1] [%] | pest or weed control at 10 ppm [2] [%] | pest or weed control at 10 ppm (Phakopsora pachyrhizi) [%] | pest or weed control at 10 ppm (Botrytis cinerea) [%]
1 | COC(=O)NCc1cc(-c2cn(-c3c(F)cc(F)cc3Cl)nn2)ccc1C [Compound 122] | 71 | 99 | 0 | 100 | 0 | 125 to 129 |  |  |  |  | 
2 | COC(=O)NCc1cc(-c2ccn(-c3c(F)cc(OC(F)F)cc3F)n2)ccc1C [Compound 15, methyl N-[[5-[1-[4-(difluoromethoxy)-2,6-difluorophenyl]-1H-pyrazol-3-yl]-2-methylphenyl]methyl]carbamate] |  |  |  |  |  | 102 to 103 | 0 | 99 | 69 | 100 | 0
3 | COC(=O)NCc1cc(-c2ccn(-c3c(F)cc(C#N)cc3F)n2)ccc1C [Compound 2] |  |  |  |  |  | 171 to 174 | 13 | 68 | 0 | 100 | 0
4 | COC(=O)NCc1cc(-c2ccn(-c3c(F)cc(C(F)(F)F)cc3F)n2)ccc1C [Compound 64, methyl N-[[5-[1-[2,6-difluoro-4-(trifluoromethyl)phenyl]-1H-pyrazol-3-yl]-2-methylphenyl]methyl]carbamate] |  |  |  |  |  | 106 to 108 | 0 | 100 | 89 | 100 | 0
5 | COC(=O)NCc1cc(-c2ccn(-c3c(F)cc(C(C)C)cc3F)n2)ccc1C [Compound 63, methyl N-[[5-[1-[2,6-difluoro-4-(1-methylethyl)phenyl]-1H-pyrazol-3-yl]-2-methylphenyl]methyl]carbamate] |  |  |  |  |  |  | 26 | 100 | 98 | 100 | 0
6 | COC(=O)NCc1cc(-c2cnn(-c3c(F)cc([N+](=O)[O-])cc3F)n2)ccc1C [Compound 118, methyl N-[[5-[2-(2,6-difluoro-4-nitrophenyl)-2H-1,2,3-triazol-4-yl]-2-methylphenyl]methyl]carbamate] | 1 | 0 | 0 | 0 | 0 |  |  |  |  |  | 
7 | COC(=O)NCc1cc(-c2ccn(-c3c(F)cc(Cl)cc3F)n2)ccc1C [Compound 6, methyl N-[[5-[1-(4-chloro-2,6-difluorophenyl)-1H-pyrazol-3-yl]-2-methylphenyl]methyl]carbamate] |  |  |  |  |  | 148 to 149 | 7 | 98 | 0 | 100 | 0
8 | COC(=O)NCc1cc(-c2ccn(-c3c(F)cc(OC)cc3F)n2)ccc1C [Compound 3, methyl N-[[5-[1-(2,6-difluoro-4-methoxyphenyl)-1H-pyrazol-3-yl]-2-methylphenyl]methyl]carbamate] |  |  |  |  |  |  | 50 | 100 | 79 | 100 | 45
9 | COC(=O)NCc1cc(-c2ncn(-c3c(F)cc([N+](=O)[O-])cc3F)n2)ccc1C [Compound 107] | 28 | 80 | 43 | 0 | 0 | 179 to 183 |  |  |  |  | 
10 | COC(=O)NCc1cc(-c2ccn(-c3c(F)cc([N+](=O)[O-])cc3F)n2)ccc1C [Compound 1, methyl N-[[5-[1-(2,6-difluoro-4-nitrophenyl)-1H-pyrazol-3-yl]-2-methylphenyl]methyl]carbamate] |  |  |  |  |  |  | 0 | 68 | 0 | 44 | 0
11 | CCOc1cc(F)c(-n2ccc(-c3ccc(C)c(CNC(=O)OC)c3)n2)c(F)c1 [Compound 11, methyl N-[[5-[1-(4-ethoxy-2,6-difluorophenyl)-1H-pyrazol-3-yl]-2-methylphenyl]methyl]carbamate] |  |  |  |  |  | 118 to 119 |  | 100 |  | 100 | 
12 | COC(=O)NCc1cc(-c2cn(-c3c(Cl)cc(OC)cc3OC)nn2)ccc1C [Compound 120] |  |  |  |  |  | 145 to 148 |  | 0 |  | 0 | 
13 | COC(=O)NCc1cc(-c2cn(-c3c(C)cc(OC)cc3C)nn2)ccc1C [Compound 124] |  |  |  |  |  | 110 to 114 |  | 0 |  | 0 | 
